Test results as given in PubChem BioAssay (NCI).
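These data come from cells grown in 96-well plates and exposed to compound for 48 hours at five concentrations. TGI marks complete inhibition of growth.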

Tests used:
Assay in all cases: NCI anticancer screen, dose series, 48 h
A549 NSCLC = system: A549 NSCLC
HCT-116 colon = system: HCT-116 colon
MALME-3M melanoma = system: MALME-3M melanoma
ACHN renal = system: ACHN renal
IGROV1 ovarian = system: IGROV1 ovarian
HOP-92 NSCLC = system: HOP-92 NSCLC
OVCAR-4 ovarian = system: OVCAR-4 ovarian
HT29 colon = system: HT29 colon
NCI-H460 lung = system: NCI-H460 lung
M14 melanoma = system: M14 melanoma
SNB-19 CNS = system: SNB-19 CNS

Compound | TGI (A549 NSCLC) | TGI (HCT-116 colon) | TGI (MALME-3M melanoma) | TGI (ACHN renal) | TGI (IGROV1 ovarian) | TGI (HOP-92 NSCLC) | TGI (OVCAR-4 ovarian) | TGI (HT29 colon) | TGI (NCI-H460 lung) | TGI (M14 melanoma) | TGI (SNB-19 CNS)
COc1cc(/C=C/C(=O)CC(=O)/C=C/c2cc(C)c(O)c(OC)c2)cc(C)c1O | > 100 µM | > 100 µM | > 100 µM | > 100 µM | > 100 µM | > 100 µM | > 100 µM | > 100 µM | > 100 µM | > 100 µM | > 100 µM
O=[N+]([O-])c1ccc(C[P+]2(c3ccccc3)CCCCC2)cc1 (tested in a mixture with another compound) | > 100 µM |  | > 100 µM | > 100 µM | > 100 µM |  | > 100 µM |  | > 100 µM | > 100 µM | > 100 µM
COc1c(C(=O)/C(=N/Nc2ccc(C(=O)O)cc2)C(C)=O)c(O)cc2occc12 | > 100 µM | > 100 µM | > 100 µM | > 100 µM | > 100 µM | > 100 µM |  | > 100 µM | > 100 µM | > 100 µM | > 100 µM
CCC(C)C(Nc1c2ccccc2nc2c(C(=O)NCCN(C)C)cccc12)C(=O)O (stereo not drawn) | > 100 µM | > 100 µM | 35.1 µM | > 100 µM | > 100 µM | 61.1 µM | 25.8 µM | 17.1 µM |  | 44.1 µM | > 100 µM
CC(C#N)(NO)C(C)(C#N)NO (stereo not drawn) | > 100 µM | > 100 µM | > 100 µM |  | > 100 µM |  | > 100 µM | > 100 µM | > 100 µM | > 100 µM | > 100 µM
Cc1ccc(C(=O)Nc2ccc(S(=O)(=O)O)c3cc(S(=O)(=O)O)cc(S(=O)(=O)O)c23)cc1NC(=O)c1cccc(NC(=O)Nc2cccc(C(=O)Nc3cc(C(=O)Nc4ccc(S(=O)(=O)O)c5cc(S(=O)(=O)O)cc(S(=O)(=O)O)c45)ccc3C)c2)c1 | > 100 µM | > 100 µM | > 100 µM | > 100 µM | > 100 µM | > 100 µM | > 100 µM | > 100 µM | > 100 µM | > 100 µM | > 100 µM
CN(C)CCCNc1ccnc2c([N+](=O)[O-])cccc12 | 75.5 µM | 39.1 µM | 8.61 µM | > 100 µM |  |  | 28.5 µM | 12.1 µM | 39.2 µM | > 100 µM | 54.5 µM
O=c1cc(NNc2ccccc2)[nH]c(=O)[nH]1 | > 100 µM | 32.6 µM | 34.4 µM | 26.1 µM | > 100 µM |  | 29.5 µM | 39 µM | 98.9 µM |  | 35.5 µM
COc1cc(/C=C/c2ccc(OC)c(OC)c2)oc(=O)c1 | > 250 µM | > 250 µM | > 250 µM |  | > 250 µM | > 250 µM | > 250 µM | > 250 µM | > 250 µM |  | > 250 µM
COc1ccc(C2CC(c3sc(Nc4ccc(C)cc4)nc3C)=NN2)cc1 (stereo not drawn) | 33 µM | 15.1 µM |  |  | > 56.9 µM | 30.3 µM | 18.3 µM | 25.6 µM | 30.3 µM |  | 33.8 µM
CCN(CC)CCC(=O)/C=C/c1ccc(Cl)c(Cl)c1 | > 10 µM | 3.74 µM | > 10 µM | > 10 µM |  | > 10 µM | > 10 µM |  | > 10 µM | > 10 µM | > 10 µM
CCC1(O)C(=O)OCc2c1cc1n(c2=O)Cc2cc3cc4c(cc3nc2-1)OCO4 (stereo not drawn) | 0.259 µM | 0.108 µM | 0.807 µM |  | 1.54 µM | 0.6 µM | 1.49 µM | 19.9 µM | 0.0156 µM | 0.0632 µM | 2.17 µM
COc1ccc(C2=C(OC(C)=O)c3cccn3-c3ccc(Cl)cc3S2)cc1 | > 10 µM |  | > 10 µM |  | > 10 µM | 6.07 µM | > 10 µM | > 10 µM |  | > 10 µM | 
Cc1[nH]c(=O)nc(N/N=C/c2c3ccccc3c(Cl)c3ccccc23)c1C(=O)Nc1ccc(Cl)cc1 | > 100 µM | > 100 µM | > 100 µM | > 100 µM | > 100 µM |  | > 100 µM | > 100 µM | > 100 µM | > 100 µM | > 100 µM
CC1=C(C)C(=O)OC(C(C)(O)C2(O)CC3OC34C3CC(O)C56OC5C=CC(=O)C6(C)C3CCC42C)C1 (stereo not drawn) | 15.5 µM |  | 3.53 µM | 2.45 µM | 6.09 µM | 12 µM | 20.3 µM | 4.2 µM | 4.23 µM | 12.6 µM | 19.9 µM
O=C(Nc1ccccc1C(=O)NCc1ccccc1)/C(=C/c1ccccc1O)NC(=O)c1ccccc1 | > 100 µM | > 100 µM |  | > 100 µM | > 100 µM | > 100 µM |  | > 100 µM | > 100 µM | > 100 µM | > 100 µM
NCCCn1c(Cl)nc2ccccc21 | > 100 µM | > 100 µM | > 100 µM | > 100 µM | > 100 µM |  | > 100 µM | > 100 µM | > 100 µM | > 100 µM | > 100 µM
CC(C)CC1c2[nH]c3ccccc3c2C[C@H]2C(=O)NC(Cc3c[nH]c4ccccc34)C(=O)N12 (stereo partly drawn) | 71 µM | 25.7 µM | 28 µM | 60 µM | 36 µM | 34.5 µM | 63.8 µM | 31.2 µM |  | 29 µM | 43.6 µM
O=C(NC(=S)Nc1ccc(Br)cc1)c1ccc2c(c1)Sc1ccccc1O2 | > 100 µM | > 100 µM | > 100 µM | > 100 µM | > 100 µM | 74.9 µM |  | > 100 µM | > 100 µM | > 100 µM | > 100 µM
CC1=NNC(=O)C1C1(C(=O)O)CC(c2c[nH]c3ccccc23)=NC(=S)N1 (stereo not drawn) | > 100 µM | > 100 µM | 74.3 µM | > 100 µM | > 100 µM | > 100 µM |  | 78.9 µM | 50.1 µM | 37.9 µM | > 100 µM
CCC1c2[nH]c3ccccc3c2C[C@H]2C(=O)NC(C)C(=O)N12 (stereo partly drawn) | > 100 µM | > 100 µM | > 100 µM | > 100 µM | > 100 µM | > 100 µM | > 100 µM | > 100 µM |  | > 100 µM | > 100 µM
O=C(CC(C(=O)c1ccsc1)c1cccs1)c1ccccc1 (stereo not drawn) | 54.8 µM | > 100 µM |  | > 100 µM | > 100 µM | > 100 µM | 67.3 µM | > 100 µM | > 100 µM | > 100 µM | 
